Experimental data reported in patent publication US10851102B2, “Imidazole and triazole containing bicyclic compounds as JAK inhibitors” (THERAVANCE BIOPHARMA R&D IP, LLC, priority 2019, dated 2020).

Assays:
[1] = system: IL-2 stimulated pSTAT5 in CD4+ T cells isolated from murine splenocytes (JAK3); assay: Inhibition of IL-2 stimulated pSTAT5 in CD4+ T cells isolated from murine splenocytes; type: cell-based; settings: Mus musculus, IL-2 7 ng/ml, read-out: pIC50, inhibition of IL-2 stimulated pSTAT5 (converted)
Description: Assay 3: Inhibition of IL-2 Stimulated pSTAT5 in CD4+ T Cells Isolated from Murine Splenocytes
The potency of test compounds for inhibition of interleukin-2 (IL-2) stimulated STATS phosphorylation was measured in the CD4+ T cells isolated from murine splenocytes using AlphaLisa. Because IL-2 signals through JAK3, this assay provides a measure of JAK3 cellular potency in mouse.
Phosphorylated STATS was measured via the AlphaLISA SureFire Ultra pSTAT5 (Tyr694/699) kit (PerkinElmer).
CD4+ T cells were isolated from murine splenocytes via negative selection on a magnetic column (Miltnyi Biotec) and re-suspended in assay media (phenol red-free DMEM (Life Technologies) supplemented with 10% FBS (ATCC)). Cells were seeded at 50,000 cells/well in assay media (2 μL/well). Compounds were serially diluted in DMSO and diluted to 2× final concentration in assay media. Compound was added (4 μl/well) and the cells incubated at 37° C., 5% CO2 for 1 hour, followed by the addition of IL-2 (R&D Systems; final concentration 7 ng/ml) in pre-warmed assay media (2 μL) for 30 minutes. After cytokine stimulation, cells were lysed with 2 μl of 5× AlphaLisa Lysis Buffer (PerkinElmer). The lysate was shaken at 900 rpm for 10 minutes at room temperature (RT). Phosphorylated STATS was measured via the pSTAT5 AlphaLisa kit (PerkinElmer). Freshly prepared acceptor bead mixture was dispensed onto lysate (5 ul) under green filtered <100 lux light. Plates were shaken at 900 rpm for 2 mins, briefly spun down, and incubated for 2 hrs at RT in the dark. Donor beads were dispensed (5 μl) under green filtered <100 lux light. Plates were shaken at 900 rpm for 2 mins, briefly spun down, and incubated overnight at RT in the dark. Luminescence was measured with excitation at 689 nm and emission at 570 nm using an EnVision plate reader (PerkinElmer) under green filtered <100 lux light.
To determine the inhibitory potency of test compounds in response to IL-2, the average emission intensity of beads bound to pSTATS was measured in primary CD4+ T cells isolated from murine splenocytes. IC50 values were determined from analysis of the inhibition curves of signal intensity vs compound concentration. Data are expressed as pIC50 (negative decadic logarithm IC50) values (mean±standard deviation).

JAK3 = JAK3 (Homo sapiens (Human), UniProt P52333); assay: Biochemical JAK and Tyk2 kinase assays (LanthaScreen): JAK3; settings: for Ki / JAK 3 (pKi): 1 h pre-incubation, ATP at Km, pIC50 converted to pKi by Cheng-Prusoff; for Ki: read-out: JAK 3 (pKi) (converted); for JAK3 (pKi)-JAK1 (pKi): difference of pKi values, selectivity JAK3 over JAK1
Procedure, shortened: (§1)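 Recombinant GST-tagged JAK enzymes with GFP-tagged STAT1 peptide substrate in 50 mM HEPES pH 7.5, 10 mM MgCl2, 1 mM EGTA, 0.01% Brij-35. Compounds pre-incubated 1 h at ambient temperature before ATP start; 1 h reaction, then EDTA plus Tb-anti-pSTAT1 (pTyr701) TR-FRET read. IC50 from 4-parameter fit, converted to pKi by Cheng-Prusoff.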

Tyk2 = Tyk2 (Homo sapiens (Human), UniProt P29597); assay: Biochemical JAK and Tyk2 kinase assays (LanthaScreen): Tyk2; settings: 1 h pre-incubation, ATP at Km; pIC50 converted to pKi by Cheng-Prusoff
Description: (§2) Assay 1: Biochemical JAK and Tyk2 Kinase Assays
(§3) A panel of four LanthaScreen JAK biochemical assays (JAK1, 2, 3 and Tyk2) were carried in a common kinase reaction buffer (50 mM HEPES, pH 7.5, 0.01% Brij-35, 10 mM MgCl2, and 1 mM EGTA). Recombinant GST-tagged JAK enzymes and a GFP-tagged STAT1 peptide substrate were obtained from Life Technologies.
(§4) Serially or discretely diluted compounds were pre-incubated with each of the four JAK enzymes and the substrate in white 384-well microplates (Corning) at ambient temperature for 1 h. ATP was subsequently added to initiate the kinase reactions in 10 μL total volume, with 1% DMSO. […] Kinase reactions were allowed to proceed for 1 hour at ambient temperature before a 10 μL preparation of EDTA (10 mM final concentration) and Tb-anti-pSTAT1 (pTyr701) antibody (Life Technologies, 2 nM final concentration) in TR-FRET dilution buffer (Life Technologies) was added. The plates were allowed to incubate at ambient temperature for 1 h before being read on the EnVision reader (Perkin Elmer). Emission ratio signals (520 nm/495 nm) were recorded and utilized to calculate the percent inhibition values based on DMSO and background controls.
(§5) For dose-response analysis, percent inhibition data were plotted vs. compound concentrations, and IC50 values were determined from a 4-parameter robust fit model with the Prism software (GraphPad Software). Results were expressed as pIC50 (negative logarithm of IC50) and subsequently converted to pKi (negative logarithm of dissociation constant, Ki) using the Cheng-Prusoff equation.

JAK1 = JAK1 (Homo sapiens (Human), UniProt P23458); assay: Biochemical JAK and Tyk2 kinase assays (LanthaScreen): JAK1; settings: 1 h pre-incubation, ATP at Km; pIC50 converted to pKi by Cheng-Prusoff
Procedure, shortened: as §1

Caco-2 cell monolayers = assay: Caco-2 permeation assay; type: in vitro ADME, human; settings: 5 μM, A to B, + Verapamil 25 μM, 120 minutes
Excerpt: Assay 5: Caco-2 Permeation Assay

[2] = system: IL-2 stimulated pSTAT5 in Tall-1 T cells (JAK3); assay: Cellular JAK3 potency assay: inhibition of IL-2 stimulated pSTAT5 in Tall-1 T cells; type: cell-based; settings: IL-2 300 ng/ml, pSTAT5 AlphaLisa, Tall-1 human T cell line; read-out: Tall-1 (pIC50) (converted)
Procedure, shortened: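 Human Tall-1 T cells (45,000/well) preincubated with compound 1 h at 37 °C, then stimulated with IL-2 (final 300 ng/ml) for 30 min. Lysates read for pSTAT5 (Tyr694/699) by AlphaLISA luminescence. IC50 from signal-versus-concentration curves, reported as pIC50 (mean±SD).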

JAK2 = JAK2 (Homo sapiens (Human), UniProt O60674); assay: Biochemical JAK and Tyk2 kinase assays (LanthaScreen): JAK2; settings: 1 h pre-incubation, ATP at Km; pIC50 converted to pKi by Cheng-Prusoff
Description: as §2, §3, §4, §5

Sequence of JAK3 (P52333 whole entry): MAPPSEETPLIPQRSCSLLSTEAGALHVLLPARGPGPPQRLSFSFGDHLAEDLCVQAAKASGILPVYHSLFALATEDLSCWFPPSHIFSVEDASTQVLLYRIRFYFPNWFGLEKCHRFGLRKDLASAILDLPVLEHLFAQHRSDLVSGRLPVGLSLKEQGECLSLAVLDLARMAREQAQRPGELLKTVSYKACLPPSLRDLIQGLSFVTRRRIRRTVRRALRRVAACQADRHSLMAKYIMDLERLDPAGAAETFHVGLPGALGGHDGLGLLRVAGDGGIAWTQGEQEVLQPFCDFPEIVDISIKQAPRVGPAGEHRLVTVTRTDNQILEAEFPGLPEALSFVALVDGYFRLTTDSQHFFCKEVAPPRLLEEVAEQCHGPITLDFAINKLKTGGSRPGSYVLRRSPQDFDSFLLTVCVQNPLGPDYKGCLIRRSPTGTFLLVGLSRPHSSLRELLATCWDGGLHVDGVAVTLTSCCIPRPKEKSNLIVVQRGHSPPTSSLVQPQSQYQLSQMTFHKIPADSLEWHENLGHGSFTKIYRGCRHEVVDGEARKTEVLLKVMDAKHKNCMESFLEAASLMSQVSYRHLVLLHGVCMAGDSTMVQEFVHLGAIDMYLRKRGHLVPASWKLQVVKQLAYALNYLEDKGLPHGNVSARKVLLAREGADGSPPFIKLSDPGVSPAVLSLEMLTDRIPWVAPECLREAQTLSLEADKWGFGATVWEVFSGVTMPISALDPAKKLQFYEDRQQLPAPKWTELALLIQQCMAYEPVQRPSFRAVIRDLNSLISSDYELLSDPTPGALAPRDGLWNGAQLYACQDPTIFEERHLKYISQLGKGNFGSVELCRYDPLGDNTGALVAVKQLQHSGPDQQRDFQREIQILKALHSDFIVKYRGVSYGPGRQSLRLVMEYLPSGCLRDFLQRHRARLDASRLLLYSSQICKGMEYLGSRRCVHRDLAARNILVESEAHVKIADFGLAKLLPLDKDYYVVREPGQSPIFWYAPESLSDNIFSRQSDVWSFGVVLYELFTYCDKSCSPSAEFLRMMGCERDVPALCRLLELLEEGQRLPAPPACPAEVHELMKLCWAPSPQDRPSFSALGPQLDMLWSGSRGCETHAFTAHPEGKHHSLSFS
Sequence of JAK2 (O60674 whole entry): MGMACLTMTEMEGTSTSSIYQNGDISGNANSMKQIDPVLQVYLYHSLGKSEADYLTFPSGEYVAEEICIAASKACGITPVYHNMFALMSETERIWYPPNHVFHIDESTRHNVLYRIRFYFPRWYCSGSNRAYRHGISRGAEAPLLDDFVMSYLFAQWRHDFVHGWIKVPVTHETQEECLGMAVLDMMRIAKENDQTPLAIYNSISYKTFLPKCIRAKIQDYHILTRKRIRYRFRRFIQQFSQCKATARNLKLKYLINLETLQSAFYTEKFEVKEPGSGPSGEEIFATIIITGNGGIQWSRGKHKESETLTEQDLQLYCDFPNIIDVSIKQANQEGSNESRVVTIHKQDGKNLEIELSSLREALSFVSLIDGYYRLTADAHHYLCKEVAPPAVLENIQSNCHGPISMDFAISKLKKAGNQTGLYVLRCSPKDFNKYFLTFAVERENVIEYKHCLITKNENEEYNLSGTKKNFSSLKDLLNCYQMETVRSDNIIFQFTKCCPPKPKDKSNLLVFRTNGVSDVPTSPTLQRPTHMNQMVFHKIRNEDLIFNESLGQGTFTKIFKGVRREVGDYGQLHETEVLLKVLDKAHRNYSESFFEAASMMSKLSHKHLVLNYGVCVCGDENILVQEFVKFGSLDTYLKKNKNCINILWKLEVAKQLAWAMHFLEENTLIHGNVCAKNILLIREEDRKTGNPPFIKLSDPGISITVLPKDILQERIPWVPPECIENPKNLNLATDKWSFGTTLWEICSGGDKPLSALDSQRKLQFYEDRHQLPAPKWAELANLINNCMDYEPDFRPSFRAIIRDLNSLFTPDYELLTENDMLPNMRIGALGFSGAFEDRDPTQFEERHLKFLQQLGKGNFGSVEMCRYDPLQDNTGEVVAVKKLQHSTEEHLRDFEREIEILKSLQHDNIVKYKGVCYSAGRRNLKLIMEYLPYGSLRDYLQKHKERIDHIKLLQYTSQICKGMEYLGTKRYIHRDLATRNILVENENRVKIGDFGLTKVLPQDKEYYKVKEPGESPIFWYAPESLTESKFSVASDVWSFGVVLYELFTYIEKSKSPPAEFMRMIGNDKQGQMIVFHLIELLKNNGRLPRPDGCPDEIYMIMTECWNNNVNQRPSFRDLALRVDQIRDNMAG
Sequence of JAK1 (P23458 whole entry): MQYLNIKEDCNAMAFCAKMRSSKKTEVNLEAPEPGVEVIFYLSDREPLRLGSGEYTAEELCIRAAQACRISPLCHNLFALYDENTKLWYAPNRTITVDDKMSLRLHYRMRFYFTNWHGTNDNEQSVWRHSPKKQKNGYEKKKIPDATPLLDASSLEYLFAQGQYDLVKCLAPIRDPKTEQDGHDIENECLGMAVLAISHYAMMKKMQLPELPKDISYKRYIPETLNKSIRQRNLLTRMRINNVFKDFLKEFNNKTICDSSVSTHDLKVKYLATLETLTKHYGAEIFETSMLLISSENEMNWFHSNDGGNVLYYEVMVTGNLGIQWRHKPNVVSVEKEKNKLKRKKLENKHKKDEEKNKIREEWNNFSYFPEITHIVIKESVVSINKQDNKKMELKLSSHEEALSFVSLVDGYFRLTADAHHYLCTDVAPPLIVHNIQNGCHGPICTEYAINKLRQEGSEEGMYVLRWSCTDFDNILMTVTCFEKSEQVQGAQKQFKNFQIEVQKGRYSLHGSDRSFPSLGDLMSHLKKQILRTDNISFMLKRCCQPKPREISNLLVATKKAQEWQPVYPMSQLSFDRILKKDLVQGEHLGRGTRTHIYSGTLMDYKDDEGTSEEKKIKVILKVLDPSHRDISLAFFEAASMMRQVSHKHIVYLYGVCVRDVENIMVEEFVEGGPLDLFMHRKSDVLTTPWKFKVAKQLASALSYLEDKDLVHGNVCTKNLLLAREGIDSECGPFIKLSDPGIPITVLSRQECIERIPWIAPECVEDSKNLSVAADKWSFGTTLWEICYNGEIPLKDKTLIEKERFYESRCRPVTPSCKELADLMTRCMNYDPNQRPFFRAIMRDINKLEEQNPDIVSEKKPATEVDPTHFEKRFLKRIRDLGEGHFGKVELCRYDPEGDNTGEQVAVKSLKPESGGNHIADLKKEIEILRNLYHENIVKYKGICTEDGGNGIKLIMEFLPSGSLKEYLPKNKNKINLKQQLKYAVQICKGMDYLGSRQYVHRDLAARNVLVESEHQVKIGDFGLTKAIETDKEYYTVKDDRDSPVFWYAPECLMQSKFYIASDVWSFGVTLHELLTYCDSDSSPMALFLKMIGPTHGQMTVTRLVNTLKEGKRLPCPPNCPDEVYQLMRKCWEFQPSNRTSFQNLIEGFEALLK
Sequence of Tyk2 (P29597 whole entry): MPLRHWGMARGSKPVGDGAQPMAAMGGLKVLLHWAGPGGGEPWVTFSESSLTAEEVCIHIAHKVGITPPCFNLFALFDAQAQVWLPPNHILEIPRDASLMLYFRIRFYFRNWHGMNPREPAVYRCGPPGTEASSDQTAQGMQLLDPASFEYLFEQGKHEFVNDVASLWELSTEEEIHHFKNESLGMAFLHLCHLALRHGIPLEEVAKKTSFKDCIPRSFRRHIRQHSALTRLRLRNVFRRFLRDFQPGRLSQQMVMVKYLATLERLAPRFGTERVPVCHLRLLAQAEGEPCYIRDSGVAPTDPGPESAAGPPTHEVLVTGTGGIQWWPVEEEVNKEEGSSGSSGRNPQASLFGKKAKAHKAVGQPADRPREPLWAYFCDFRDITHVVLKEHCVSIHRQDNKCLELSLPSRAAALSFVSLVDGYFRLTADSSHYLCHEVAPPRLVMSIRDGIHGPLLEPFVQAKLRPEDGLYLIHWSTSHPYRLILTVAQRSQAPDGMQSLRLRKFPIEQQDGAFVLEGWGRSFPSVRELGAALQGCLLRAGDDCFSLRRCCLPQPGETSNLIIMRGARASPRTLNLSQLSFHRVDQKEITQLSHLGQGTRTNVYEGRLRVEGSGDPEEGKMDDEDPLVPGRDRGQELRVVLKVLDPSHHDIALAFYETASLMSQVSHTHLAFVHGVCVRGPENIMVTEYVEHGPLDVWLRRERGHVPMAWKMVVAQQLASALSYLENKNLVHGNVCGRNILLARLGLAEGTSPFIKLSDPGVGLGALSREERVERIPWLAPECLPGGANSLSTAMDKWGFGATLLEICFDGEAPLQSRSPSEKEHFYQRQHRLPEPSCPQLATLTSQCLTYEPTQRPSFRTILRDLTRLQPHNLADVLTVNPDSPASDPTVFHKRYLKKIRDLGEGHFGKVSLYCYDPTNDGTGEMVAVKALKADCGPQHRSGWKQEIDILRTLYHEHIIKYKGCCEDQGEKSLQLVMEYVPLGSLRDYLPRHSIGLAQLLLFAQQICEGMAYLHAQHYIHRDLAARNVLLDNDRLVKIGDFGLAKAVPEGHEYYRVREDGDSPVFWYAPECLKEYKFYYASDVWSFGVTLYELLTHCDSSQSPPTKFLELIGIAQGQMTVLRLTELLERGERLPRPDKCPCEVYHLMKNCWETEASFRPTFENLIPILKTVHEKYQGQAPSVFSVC

SMILES	IC50 [1] [nM]	Ki (JAK3) [nM]	JAK3 (pKi)-JAK1 (pKi) (JAK3)	Tyk 2 (pKi) (Tyk2)	JAK 1 (pKi) (JAK1)	Caco Kp 10^−6 cm/sec (Caco-2 cell monolayers)	IC50 [2] [nM]	JAK 2 (pKi) (JAK2)	JAK 3 (pKi) (JAK3)
C=CC(=O)N1CC(COc2cc(-c3cc(Cl)c(O)c(OC)c3)cn3cncc23)C1 [Example 9, 1-(3-(((6-(3-chloro-4-hydroxy-5-methoxyphenyl)imidazo[1,5-a]pyridin-8-yl)oxy)methyl)azetidin-1-yl)prop-2-en-1-one]	< 1000	0.1 to 1	A (A represents a value of 3 or above)	E (E represents a pKi value of 7 or below (Ki of 100 nM or above))	E (E represents a pKi value of 7 or below (Ki of 100 nM or above))	A (A represents a value below 5×10^−6 cm/sec)	31.6 to 200	E (E represents a pKi value of 7 or below (Ki of 100 nM or above))	
C=CC(=O)N1CC(COc2cc(-c3ccc(O)cc3)cn3cncc23)C1 [Example 11, 1-(3-(((6-(4-hydroxyphenyl)imidazo[1,5-a]pyridin-8-yl)oxy)methyl)azetidin-1-yl)prop-2-en-1-one]	< 1000	0.1 to 1	A (A represents a value of 3 or above)	E (E represents a pKi value of 7 or below (Ki of 100 nM or above))	E (E represents a pKi value of 7 or below (Ki of 100 nM or above))	A (A represents a value below 5×10^−6 cm/sec)	31.6 to 200	E (E represents a pKi value of 7 or below (Ki of 100 nM or above))	
C=CC(=O)N1CC(COc2cc(-c3ccc(O)c(F)c3)cn3cncc23)C1 [Example 20]	< 1000	0.1 to 1	A (A represents a value of 3 or above)	E (E represents a pKi value of 7 or below (Ki of 100 nM or above))	E (E represents a pKi value of 7 or below (Ki of 100 nM or above))	A (A represents a value below 5×10^−6 cm/sec)	31.6 to 200	E (E represents a pKi value of 7 or below (Ki of 100 nM or above))	
C=CC(=O)N1CC(C(C)(C)Oc2cc(-c3ccc(O)cc3)cn3cncc23)C1 [Example 28]	< 1000		A (A represents a value of 3 or above)	E (E represents a pKi value of 7 or below (Ki of 100 nM or above))	E (E represents a pKi value of 7 or below (Ki of 100 nM or above))	A (A represents a value below 5×10^−6 cm/sec)	31.6 to 200	E (E represents a pKi value of 7 or below (Ki of 100 nM or above))	A (A represents a pKi value≥10 (Ki≤0.1 nM))
C=CC(=O)N1CC(COc2cc(-c3cc(F)c(O)c(Cl)c3)cn3cncc23)C1 [Example 31]	< 1000		A (A represents a value of 3 or above)	E (E represents a pKi value of 7 or below (Ki of 100 nM or above))	E (E represents a pKi value of 7 or below (Ki of 100 nM or above))	A (A represents a value below 5×10^−6 cm/sec)	31.6 to 200	E (E represents a pKi value of 7 or below (Ki of 100 nM or above))	A (A represents a pKi value≥10 (Ki≤0.1 nM))
